# Experimental data as given in patent US20220072101A1, “HARNESSING INFLAMMATION TO TREAT NEURODEVELOPMENTAL DISORDERS” (President and Fellows of Harvard College, priority 2019, published 2022).
# “Also recorded” adds a separate entry of the source.
# Legend:
# c-Fos = test: Quantification of c-Fos+ cells in the brain after LPS administration; format: in vivo, mouse
# Procedure: Animals were transcardially perfused with cold PFA (4% in PBS). Brains were kept in PFA overnight at 4° C. prior to vibratome sectioning (Leica VT1000s®). Brains were cut at 50 μm thickness for cFos quantification. Brains were cut at 100 μm thickness for all other experiments.
# Prior to antibody labeling, sections were incubated in blocking solution (0.4% Triton X-100 and 2% goat serum in PBS) for 30 min. Sections were then incubated in blocking solution containing primary antibodies overnight at room temperature. Primary antibodies used were chicken anti-GFP (1:1000, Ab5450, Abcam®), rabbit anti-cFos (1:500, ABE457, Millipore®), rabbit anti-DsRed (1:1000, 632496, Clontech®). Sections were washed in wash buffer (0.4% Triton X-100 in PBS) three times before secondary antibody labeling. Sections were incubated in blocking solution containing secondary antibodies and DAPI (1:5000, D1306, Thermofisher™) for three hours at room temperature. Images of stained slices were acquired using a confocal microscope (LSM710, Carl Zeiss®) with a 10× or 20× objective lens.
# Adult male mice were sacrificed five hours after LPS injection. c-Fos+ cells were quantified using the Cell Counter plugin in Fiji^25. All cells were counted within a single coronal section of each respective brain region as defined by the Paxinos and Franklin Mouse Atlas^26. Regions quantified include mPFC (Including only PrL and IL) (AP+1.98), S1DZ (AP-0.48), S1BF (AP-0.48), M1 (AP-0.46), M2 (AP-0.46), AuD (AP-1.94), CeA (AP-1.94), and V1 (AP-3.64). Somatosensory cortex dysgranular zone (S1DZ), somatosensory cortex barrel field (S1BF), secondary motor cortex (M2), primary motor cortex (M1), secondary auditory cortex dorsal part (AuD), central amygdala (CeA), medial prefrontal cortex (mPFC), prelimbic cortex (PrL), infralimbic cortex (IL), primary visual cortex (V1).
# Adult male mice were sacrificed five hours after LPS injection. c-Fos^+ cells were quantified using the Cell Counter plugin in Fiji^28. All cells were counted within a single coronal section of each respective brain region as defined by the Paxinos and Franklin Mouse Atlas^29. Regions quantified include mPFC (PrL and IL) (AP+1.98), S1DZ (AP-0.46), S1BF (AP-0.46), M1 (AP-0.46), M2 (AP-0.46), AuD (AP-1.94), CeA (AP-1.94), and V1 (AP-3.64). Medial prefrontal cortex (mPFC), prelimbic cortex (PrL), infralimbic cortex (IL), primary somatosensory cortex dysgranular zone (S1DZ), primary somatosensory cortex barrel field (S1BF), primary motor cortex (M1), secondary motor cortex (M2), secondary auditory cortex dorsal part (AuD), central amygdala (CeA), primary visual cortex (V1). […]
# [1] = test system: Cntnap2, Fmr1, and Shank3 mutant mice; test: Three-chamber social approach assay in monogenic mutant mice; format: in vivo, mouse; settings: Cntnap2, Fmr1 and Shank3 mutant mice; LPS i.p.; 4 hours
# Procedure: All experiments were performed according to Guide for the Care and Use of Laboratory Animals and were approved by the National Institutes of Health and the Committee on Animal Care at Massachusetts Institute of Technology. C57BL/6 were purchased from Taconic Biosciences for generating PBS and MIA offspring. Vgat-Cre (028862) were purchased from Jackson Laboratories and inbred. For monogenic experiments, C57BL/6, Cntnap2 (017482), Fmr1 (003025), and Shank3 (017688) mice were purchased from Jackson Laboratories and inbred after colonizing with SFB from donor mice. IL-17Ra^fl/fl and IL-17RaKO were previously described^24,25. All mice were males aged 2-5 months, unless otherwise specified.
# Adult male mice were assayed for sociability using a three-chamber social approach assay. The arena was constructed of white acrylic (50 cm×35 cm×30 cm). Wire cups (Spectrum Diversified®) were placed in the back left and right corner of the arena beneath water-filled 1 L bottles (Nalgene®). On day 0, mice were habituated to the arena for 10 min. Immediately following habituation, mice were singly housed. On day 1 (Pre), mice were placed in the center of the arena and allowed to freely explore. Following 10 min, mice were confined to the center of the arena. An inanimate object (rubber stopper) or a male conspecific were placed beneath the wire cups. Placement of the inanimate object and social target were alternated. Mice were then allowed to freely explore the arena for 10 min. Interaction time was defined as time spent in the areas circumscribing the wire cups (<2 cm). Sociability was defined as interaction time with the social target divided by total interaction time and expressed as a percentage. For experiments involving LPS injections, mice were injected with either saline (Veh) or LPS ([…], i.p., L2630, Sigma) on day 2 (Test), four hours prior to testing. For the experiment assaying sociability 72 hrs following LPS injection, mice used for 4 hr LPS sociability experiments were tested for sociability again at 72 hrs. […]
substance,measurement,setting,value
lipopolysaccharide [LPS],number of c-Fos+ S1DZ neurons,"c-Fos; LPS-treated MIA offspring, five hours after LPS",indistinguishable from that of PBS offspring; also recorded: reduced to levels of control offspring
same,number of c-Fos-expressing neurons in the central amygdala (CeA),"c-Fos; MIA offspring, LPS",increased
same,number of c-Fos-expressing neurons in other cortical regions,"c-Fos; MIA offspring, LPS, S1BF, M1, M2, mPFC, AuD, V1",remained unchanged; also recorded: does not have a distinguishable effect on c-Fos expression in other cortical regions analyzed
same,number of S1DZ c-Fos+ neurons,"c-Fos; monogenic mutant mice (Cntnap2, Fmr1, Shank3), LPS",failed to reduce the number of S1DZ c-Fos^+ neurons in monogenic mutant mice
same,sociability after LPS,[1],"failed to restore sociability in mutant mice deficient for Cntnap2, Fmr1, and Shank3"
